How the values were obtained:
Experiment in all cases: relative viability (nuclei count vs DMSO), 5 days (fraction); higher = more cells survive
[1] = compound: CO[C@H]1C[C@@H]2CC[C@@H](C)[C@@](O)(O2)C(=O)C(=O)N2CCCC[C@H]2C(=O)O[C@H]([C@H](C)C[C@@H]2CC[C@@H](OCCO)[C@H](OC)C2)CC(=O)[C@H](C)/C=C(\C)[C@@H](O)[C@@H](OC)C(=O)[C@H](C)C[C@H](C)/C=C/C=C/C=C/1C [Everolimus] + C[C@]1(O)C[C@@H](c2nc(-c3ccc4ccc(-c5ccccc5)nc4c3)c3c(N)nccn32)C1 [Linsitinib] (partner 1 µM)
In short: (§1)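 Relative viability divides the nuclei count in treated wells by that in vehicle wells. Lung cancer cell lines were seeded in 1536-well plates, dosed by pin tool the next day, and fixed and stained after 5 days in one step with final 0.05% Triton X-100, 1% formaldehyde and 1 ug/ml Hoechst. Dosing was a single drug or a fixed anchor-drug dose plus five library-drug doses (not always all listed) in √10 steps, and values are medians of duplicate plates imaged at 4×.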

[2] = compound: CO[C@H]1C[C@@H]2CC[C@@H](C)[C@@](O)(O2)C(=O)C(=O)N2CCCC[C@H]2C(=O)O[C@H]([C@H](C)C[C@@H]2CC[C@@H](OCCO)[C@H](OC)C2)CC(=O)[C@H](C)/C=C(\C)[C@@H](O)[C@@H](OC)C(=O)[C@H](C)C[C@H](C)/C=C/C=C/C=C/1C [Everolimus] + Nc1nc2[nH]cc(CCc3ccc(C(=O)N[C@@H](CCC(=O)O)C(=O)O)cc3)c2c(=O)[nH]1 [Pemetrexed] (partner 0.2 µM)
In short: as §1

[3] = compound: CO[C@H]1C[C@@H]2CC[C@@H](C)[C@@](O)(O2)C(=O)C(=O)N2CCCC[C@H]2C(=O)O[C@H]([C@H](C)C[C@@H]2CC[C@@H](OCCO)[C@H](OC)C2)CC(=O)[C@H](C)/C=C(\C)[C@@H](O)[C@@H](OC)C(=O)[C@H](C)C[C@H](C)/C=C/C=C/C=C/1C [Everolimus] + O=C(CCCCCCC(=O)Nc1ccccc1)NO [Vorinostat] (partner 1 µM)
In short: as §1

[4] = compound: CO[C@H]1C[C@@H]2CC[C@@H](C)[C@@](O)(O2)C(=O)C(=O)N2CCCC[C@H]2C(=O)O[C@H]([C@H](C)C[C@@H]2CC[C@@H](OCCO)[C@H](OC)C2)CC(=O)[C@H](C)/C=C(\C)[C@@H](O)[C@@H](OC)C(=O)[C@H](C)C[C@H](C)/C=C/C=C/C=C/1C [Everolimus] + O=C(c1cc(Cc2n[nH]c(=O)c3ccccc23)ccc1F)N1CCN(C(=O)C2CC2)CC1 [Olaparib] (partner 8 µM)
In short: as §1

Cell Line	relative viability ([1]; first compound 0.01 µM)	relative viability ([1]; first compound 0.03162 µM)	relative viability ([1]; first compound 0.1 µM)	relative viability ([1]; first compound 0.3162 µM)	relative viability ([1]; first compound 1 µM)	relative viability ([2]; first compound 0.01 µM)	relative viability ([2]; first compound 0.03162 µM)	relative viability ([2]; first compound 0.1 µM)	relative viability ([2]; first compound 0.3162 µM)	relative viability ([2]; first compound 1 µM)	relative viability ([3]; first compound 0.01 µM)	relative viability ([3]; first compound 0.03162 µM)	relative viability ([3]; first compound 0.1 µM)	relative viability ([3]; first compound 0.3162 µM)	relative viability ([3]; first compound 1 µM)	relative viability ([4]; first compound 0.01 µM)	relative viability ([4]; first compound 0.03162 µM)	relative viability ([4]; first compound 0.1 µM)	relative viability ([4]; first compound 0.3162 µM)	relative viability ([4]; first compound 1 µM)
CAL-12T	0.452	0.56	0.447	0.616	0.562	0.572	0.58	0.664	0.653	0.627	0.267	0.29	0.237	0.321	0.318	0.527	0.486	0.483	0.473	0.379
COR-L23	0.552	0.501	0.603	0.708	0.652	0.196	0.194	0.189	0.193	0.186	0.322	0.336	0.308	0.381	0.367	0.321	0.346	0.334	0.282	0.352
COR-L 105	0.743	0.604	0.585	0.686	0.504	0.9	0.806	0.75	0.792	0.716	0.58	0.465	0.535	0.572	0.59	0.649	0.627	0.497	0.581	0.516
EKVX	0.863	0.728	0.63	0.402	0.568		0.378	0.371	0.345	0.389	0.72	0.567	0.429	0.451	0.425		0.493	0.494	0.561	0.558
EMC-BAC-2	0.587	0.542	0.532	0.517	0.501	0.469	0.491	0.445	0.45	0.491	0.278	0.267	0.299		0.292	0.455	0.43	0.385	0.383	0.347
EPLC-272H	1.15	0.786	0.64	0.619	0.657	0.343	0.317	0.397	0.313	0.315	0.512	0.306	0.289	0.336	0.305	0.552	0.484	0.428	0.429	0.483
H3255	0.804	0.695	0.559	0.602	0.504	0.459	0.458	0.478	0.449	0.455	0.474	0.82	0.47	0.446	0.549	0.489	0.513	0.444	0.454	0.355
HARA	0.839	0.8	0.646	0.674	0.713	0.294	0.245	0.26	0.238	0.202	0.431	0.494	0.407	0.371	0.485	0.78	0.762	0.86	0.84	0.471
HCC-15	0.787	0.777	0.692	0.739	0.653	0.222	0.273	0.23	0.231	0.222	0.937	0.862	0.767	0.753	0.77	0.723	0.796	0.642	0.656	0.647
HCC-44	0.467	0.545	0.313	0.349	0.411	0.769	0.802	0.675	0.705	0.727	1.17	1.23	1.03	1.14	1.05	1	1.17	1.07	1.06	1.03
HCC-78	0.482	0.319	0.272	0.28	0.293	0.902	0.929	0.873	0.914	0.93	0.401	0.372	0.416	0.367	0.307	0.827	0.43	0.657	0.717	0.678
HCC-366	0.338	0.372	0.274	0.291	0.343	0.339	0.307	0.284	0.216	0.173	0.221	0.16	0.181	0.214	0.165	0.337	0.271	0.302	0.27	0.284
HCC-827	1.01	0.977	0.979	1	0.838	0.22	0.251	0.194	0.275	0.243	0.643	0.578	0.709	0.827	0.794	0.73	0.672	0.681	0.501	0.645
HOP-62	0.669	0.603	0.477	0.607	0.449	0.326	0.401	0.337	0.375	0.338	0.475	0.345	0.388	0.389	0.361	0.354	0.434	0.5	0.505	0.339
LC-2-ad	0.75	0.744	0.781	0.766	0.702	0.275	0.301	0.286	0.291	0.253	0.851	0.865	0.759	0.79	0.728	0.861	0.972	0.817	0.84	0.864
LCLC-97TM1	0.141	0.142	0.147	0.129	0.151	0.165	0.195	0.196	0.18	0.211	0.62	0.616	0.688	0.659	0.379	0.356	0.317	0.291	0.269	0.434
LCLC-103H	1.04	0.905	0.864	0.831	0.747	0.43	0.453	0.472	0.45	0.438	0.747	0.755	0.734	0.712	0.617	0.709	0.762	0.669	0.685	0.761
LK-2	0.426	0.497	0.286	0.282	0.198	0.203	0.229	0.212	0.208	0.167	0.243	0.174	0.188	0.21	0.189	0.594	0.603	0.413	0.403	0.351
LOU-NH91	0.794	0.644	0.718	0.585	0.66	0.477	0.467	0.394	0.418	0.485	0.809	0.653	0.744	0.727	0.764	0.744	0.829	0.789	0.788	0.777
LU99A	0.342	0.345	0.295	0.283	0.334	0.206	0.24	0.248	0.189	0.254	0.367	0.371	0.325	0.311	0.471	0.246	0.21	0.226	0.216	0.236
LXF-289	0.984	0.972	0.913	1.02	0.917	1.09	1.07	0.823	1.12	1.02	0.909	0.831	0.817	0.987	0.934	1.03	1.04	0.885	1.03	1
NCI-H23	0.288	0.3	0.244	0.251	0.271	0.55	0.398	0.607	0.535	0.472	0.373	0.31	0.432	0.369	0.35	0.261	0.219	0.267	0.221	0.22
NCI-H322M	0.87	0.695	0.683	0.739	0.645	0.597	0.598	0.554	0.597	0.618	0.77	0.601	0.712	0.654	0.713	0.723	0.686	0.742	0.704	0.73
NCI-H358	0.421	0.533	0.544	0.388	0.347	0.173	0.162	0.162	0.158	0.153	0.431	0.434	0.388	0.417	0.47	0.424	0.384	0.303	0.325	0.389
NCI-H441	0.504	0.302	0.289	0.402	0.401	0.275	0.276	0.269	0.262	0.286	0.701	0.789	0.55	0.669	0.589	0.517	0.598	0.489	0.657	0.484
NCI-H460	0.42	0.45	0.365	0.301	0.381	0.058	0.0669	0.0635	0.0608	0.072	0.621	0.617	0.486	0.625	0.372	0.44	0.407	0.4	0.403	0.422
NCI-H520	0.533	0.441	0.532	0.343	0.372	0.349	0.318	0.324	0.255	0.325	0.455	0.373	0.439	0.394	0.387	0.29	0.209	0.296	0.18	0.312

From the supplement of paper PMC10307832
